The text below walks through data of US8168797B2, “Oxazolidinone derivative with difluorophenyl moiety, pharmaceutically acceptable salt thereof, preparation method thereof and antibiotic composition containing the same as an active ingredient” (Korea Institute of Science and Technology, priority 2008, dated 2012).

Converted amounts (≈) assume the structure as drawn.

Common to all, as to format: cell-based
Test [1] relates to Vancomycin resistant enterococci 6. Kind of test: organism not typed. The note with it: read-out: Inhibitory Activity (MIC). The text has this: (§1) To this end, the compound of Example 2 and the currently used oxazolidinone class Linezolid were examined for minimal inhibitory concentration (hereinafter, referred to as “MIC”) against Gram-positive strains and resistant bacteria including methicillin-resistant Staphylococcus aureus (MRSA) and vancomycin resistant enterococci by an agar dilution method using Muller-Hinton agar.
(§2) As used herein, the term MIC is intended to refer to the lowest concentration of an antibiotic that will inhibit the growth of a microorganism. MIC values are expressed as μg/ml. Bacterial strains used for this assay included Haemophilus influenza, Coagulase negative staphylococi, Staphylcoccus aureus (MRSA), Enterococcus faecalis (VER), Enterococcus faecium (VR 1, VR 2), and Vancomycin resistant enterococci 1˜6.
(§3) After being incubated for 18 hours in a Muller-Hinton broth, the strains were transferred to fresh broth at a concentration of approximately 10^7 CFU/ml. Isolates were distributed with a multipoint inoculator (MIC-2000 Dynatech) at 10^4 CFU per spot onto agar plates containing the compound of the Examples or Comparative Examples.

Test [2] concerns Vancomycin resistant enterococci 5. Kind of test: organism not typed. Particulars: read-out: Inhibitory Activity (MIC).
Description: as §1, §2, §3

Test [3] relates to Vancomycin resistant enterococci 4. The test can be described thus: organism not typed. The note with it: read-out: Inhibitory Activity (MIC).
Description: as §1, §2, §3

In another test the test system is Haemophilus influenza. Kind of test: MIC by agar dilution method using Muller-Hinton agar. Particulars: read-out: Inhibitory Activity (MIC); strain a: Haemophilus infuenz.
Description: as §1, §2, §3

Test [4] has as its system Staphylcoccus aureus (MRSA). The test is described as above. Particulars: Staphylococcus aureus; strain c: Staphylcoccus aureus (MRSA); read-out: Inhibitory Activity (MIC).
Description: as §1, §2, §3

Test [5] relates to Vancomycin resistant enterococci 3. The description is as above. Particulars: strain i: Vancomycin resistant enterococci 3; read-out: Inhibitory Activity (MIC).
Description: as §1, §2, §3

Test [6] has as its system Enterococcus faecium (VR 2). The test is described as above. Particulars: strain f: Enterococcus faecium (VR 2); read-out: Inhibitory Activity (MIC).
Description: as §1, §2, §3

For test [7], the system named is Enterococcus faecium (VR 1). The description is as above. Particulars: strain e: Enterococcus faecium (VR 1); read-out: Inhibitory Activity (MIC).
Description: as §1, §2, §3

Test [8] concerns Vancomycin resistant enterococci 1. The description is as above. The note with it: strain g: Vancomycin resistant enterococci 1; read-out: Inhibitory Activity (MIC).
Description: as §1, §2, §3

The test system of test [9] is Coagulase negative staphylococi. The test is described as above. Particulars: read-out: Inhibitory Activity (MIC); strain b: Coagulase negative staphylococi.
Description: as §1, §2, §3

Test [10] relates to Enterococcus faecalis (VRE). Described as above. Particulars: strain d: Enterococcus faecalis (VRE); read-out: Inhibitory Activity (MIC).
Description: as §1, §2, §3

In test [11] the test system is Vancomycin resistant enterococci 2. Described as above. The note with it: strain h: Vancomycin resistant enterococci 2; read-out: Inhibitory Activity (MIC).
Description: as §1, §2, §3

Test [12] has as its system Gram-positive strains and resistant bacteria including MRSA and vancomycin resistant enterococci. Kind of test: MIC by agar dilution, text summary over the strain panel. The note with it: read-out: MIC against Haemophilus influenza, Coagulase negative staphylococci and vancomycin resistant enterococci (VRE).
Description: as §1, §2, §3
For orientation: Agar dilution tests growth on a series of plates holding different concentrations.

Consider `CC(=O)NC[C@H]1CN(c2cc(F)c(N3CC(F)C4(CC4)C3)c(F)c2)C(=O)O1` (stereo partly drawn) [Example 2, (S)—N-{{3-[3,5-Difluoro-4-(7-fluoro-5-azaspiro[2,4]heptan-5-yl)phenyl]-2-oxo-5-oxazolidinyl}methyl}acetamide], for which the MIC in [1] worked out at 0.781 µg/mL (≈ 2.04 µM); in test [2], 0.781 µg/mL (≈ 2.04 µM); in [3], 0.781 µg/mL (≈ 2.04 µM); with Haemophilus influenza, 0.781 µg/mL (≈ 2.04 µM); in [4] it was 1.56 µg/mL (≈ 4.08 µM); in [5] it was 3.12 µg/mL (≈ 8.15 µM). Also, the MIC in test [6] worked out at 1.56 µg/mL (≈ 4.08 µM); in test [7], 1.56 µg/mL (≈ 4.08 µM); in test [8], 3.12 µg/mL (≈ 8.15 µM); in test [9] it was 0.781 µg/mL (≈ 2.04 µM); in test [10], 1.56 µg/mL (≈ 4.08 µM); in [11], 1.56 µg/mL (≈ 4.08 µM).

For `CC(=O)NC[C@H]1CN(c2ccc(N3CCOCC3)c(F)c2)C(=O)O1` [Linezolid, reference compound], the MIC in test [12] is 1.56 to 3.12 µg/mL (≈ 4.63 to 9.26 µM); with Haemophilus influenza it was 3.12 µg/mL (≈ 9.26 µM); in [9], 3.12 µg/mL (≈ 9.26 µM).
